Reference: patent publication US4062948A, “Dihydromocimycin antibiotics” (Gist-Brocades N.V., priority 1970, dated 1977)
Values after ≈ are worked out from the molar mass of the structure shown. “Also recorded” adds a separate entry of the source.

Columns and labels:
[1] = system: Listeria monocytogenes A2132; test: Agar dilution tests; format: cell-based; settings: anaerobic culture, read-out: Minimum inhibitory concentration
Solubility = format: physicochemical
Bacillus subtilis TH 10 = test: Liquid dilution tests; format: cell-based; settings: TH10, read-out: Minimum inhibitory concentration
[2] = system: Clostridium perfringens A738; test: microbe, parasite or virus in culture; format: cell-based; settings: A738, read-out: Minimum inhibitory concentration
Escherichia coli U20 = test: Agar dilution tests; format: cell-based; settings: anaerobic culture, read-out: Minimum inhibitory concentration
[3] = system: Streptococcus haemolyticus A2182; test: Liquid dilution tests; format: cell-based; settings: read-out: Minimum inhibitory concentration
[4] = system: Brucella suis (smooth) A2126; test: microbe, parasite or virus in culture; format: cell-based; settings: read-out: Minimum inhibitory concentration
[5] = system: Bacillus subtilis ATCC 6051; test: Liquid dilution tests; format: cell-based; settings: ATCC6051, read-out: Minimum inhibitory concentration
Bacillus cereus D261 = test: Liquid dilution tests; format: cell-based; settings: read-out: Minimum inhibitory concentration
Bacillus cereus D220 = test: Liquid dilution tests; format: cell-based; settings: read-out: Minimum inhibitory concentration
[6] = system: Staphylococcus aureus A 2000; test: Agar dilution tests; format: cell-based; settings: A2000, anaerobic culture, read-out: Minimum inhibitory concentration
[7] = system: Listeria monocytogenes A2130; test: Agar dilution tests; format: cell-based; settings: anaerobic culture, read-out: Minimum inhibitory concentration
[8] = system: Salmonella typhimurium R172; test: Agar dilution tests; format: cell-based; settings: Salmonella enterica, anaerobic culture, read-out: Minimum inhibitory concentration
[9] = system: Bacillus thuringiensis W11; test: Liquid dilution tests; format: cell-based; settings: read-out: Minimum inhibitory concentration
[10] = system: Bacillus subtilis 220 D178; test: Liquid dilution tests; format: cell-based; settings: read-out: Minimum inhibitory concentration
[11] = system: Clostridium septicum A2152; test: Agar dilution tests; format: cell-based; settings: anaerobic culture, read-out: Minimum inhibitory concentration
[12] = system: Listeria monocytogenes A2131; test: Agar dilution tests; format: cell-based; settings: anaerobic culture, read-out: Minimum inhibitory concentration
R-Streptococcen A2148 = test: Agar dilution tests; format: cell-based; settings: read-out: Minimum inhibitory concentration
[13] = system: Diplococcus pneumoniae L54; test: Agar dilution tests; format: cell-based; settings: Streptococcus pneumoniae, anaerobic culture, read-out: Minimum inhibitory concentration
[14] = system: Streptococcus zocepidemicus A2144; test: Agar dilution tests; format: cell-based; settings: anaerobic culture, read-out: Minimum inhibitory concentration
[15] = system: Bacillus mesenterium D169; test: Liquid dilution tests; format: cell-based; settings: read-out: Minimum inhibitory concentration
Bacillus cereus B569 = test: Liquid dilution tests; format: cell-based; settings: read-out: Minimum inhibitory concentration
[16] = system: Streptococcus haemolyticus A266; test: Liquid dilution tests; format: cell-based; settings: A266, read-out: Minimum inhibitory concentration
[17] = system: Bacillus subtilis ATCC 6633; test: Liquid dilution tests; format: cell-based; settings: ATCC6633, read-out: Minimum inhibitory concentration
[18] = system: Mycoplasma hyorhinus A2230; test: Liquid dilution tests; format: cell-based; settings: A2230, read-out: Minimum inhibitory concentration
[19] = system: Staphylococcus aureus A 2001; test: Agar dilution tests; format: cell-based; settings: A2001, anaerobic culture, read-out: Minimum inhibitory concentration
[20] = system: Pasteurella haemolytica A2136; test: Agar dilution tests; format: cell-based; settings: Mannheimia haemolytica, anaerobic culture, read-out: Minimum inhibitory concentration
[21] = system: Bacillus subtilis 6346 D167; test: Liquid dilution tests; format: cell-based; settings: read-out: Minimum inhibitory concentration
Treponema spec. A2275 = test: Agar dilution tests; format: cell-based; settings: anaerobic culture, read-out: Minimum inhibitory concentration
Bacillus cereus D166 = test: Liquid dilution tests; format: cell-based; settings: read-out: Minimum inhibitory concentration
[22] = growth and feed-conversion of animals being fattened; format: in vivo; settings: low concentration in feed; chickens or pigs
Description: Many properties of dihydromocimycin are similar to those of mocimycin.

Bacillus cereus TH 1 = test: Liquid dilution tests; format: cell-based; settings: TH1, read-out: Minimum inhibitory concentration
[23] = system: Streptomyces viridochromogenes; test: Liquid dilution tests; format: cell-based; settings: read-out: Minimum inhibitory concentration
[24] = system: Bacillus cereus var. mycoides; test: microbe, parasite or virus in culture; format: cell-based; settings: read-out: Minimum inhibitory concentration
[25] = system: Diplococcus pneumoniae A 188; test: micro liquid serial dilution test (Table II); format: cell-based; settings: Streptococcus pneumoniae, A188; 18 hours at 30° C or 37° C; read-out: Minimum inhibitory concentration
Description: (§1) The microbiological activity of the antibiotic preparation towards a number of micoorganisms has been determined by a micro liquid serial dilution test:
(§2) A stock solution of the test compounds at a concentration of 200 μg/ml in 0.05 molar phosphate buffer at a pH of 6.5 was prepared and serial 1:1 dilutions were made with a liquid medium inoculated with the test organism, using conventional glass spot-test plates. The plates were incubated 18 hours at 30° C or 37° C. The minimum inhibitory concentration (MIC) which is the smallest concentration of compound completely inhibiting the growth of the test organism is read and calculated in μg/ml.

Candida albicans A 7 = test: micro liquid serial dilution test (Table II); format: cell-based; settings: A7, 18 hours at 30° C or 37° C, read-out: Minimum inhibitory concentration
Description: as §1, §2

[26] = system: Pseudomonas aeruginosa L 94; test: micro liquid serial dilution test (Table II); format: cell-based; settings: L94, 18 hours at 30° C or 37° C, read-out: Minimum inhibitory concentration
Description: as §1, §2

[27] = system: Bacillus subtilis ATCC 6633; test: micro liquid serial dilution test (Table II); format: cell-based; settings: ATCC6633, 18 hours at 30° C or 37° C, read-out: Minimum inhibitory concentration
Description: as §1, §2

[28] = system: Salmonella typhimurium R 127; test: micro liquid serial dilution test (Table II); format: cell-based; settings: Salmonella enterica, 18 hours at 30° C or 37° C, read-out: Minimum inhibitory concentration
Description: as §1, §2

For `CC=CC=CC1OC(O)(C(CC)C(=O)NCC=CC=C(C)C(OC)C(C)C2OC(C=CC=CC=C(C)C(=O)C3=C(O)CCNC3=O)C(O)C2O)C(O)C(O)C1(C)C` (stereo not drawn) [dihydromocimycin], the MIC [1] was 6 µg/mL (≈ 7.51 µM), the solubility (Solubility; carbon tetrachloride and benzene (dihydromocimycin)) was “moderate” and the solubility (Solubility; chloroform, methyl isobutyl ketone, ethyl acetate, butyl acetate, acetone, dioxan, methanol, ethanol, tetrahydrofuran, weakly alkaline aqueous solutions) was “good”. The solubility (Solubility; diethyl ether, water, weakly acid aqueous solutions, cyclohexane and petroleum ether) was “insoluble”, the MIC (Bacillus subtilis TH 10) was 50 µg/mL (≈ 62.6 µM) and the MIC [2] was over 100 µg/mL. The MIC (Escherichia coli U20) was 100 µg/mL (≈ 125 µM), the MIC [3] was 0.12 µg/mL (≈ 0.15 µM) and the MIC [4] was 0.4 µg/mL (≈ 0.501 µM). It also gave an MIC [5] of 50 µg/mL (≈ 62.6 µM), an MIC (Bacillus cereus D261) of 0.6 µg/mL (≈ 0.751 µM) and an MIC (Bacillus cereus D220) of 0.9 µg/mL (≈ 1.13 µM). The MIC [6] was over 100 µg/mL, the MIC [7] was 1.5 µg/mL (≈ 1.88 µM) and the MIC [8] was over 100 µg/mL. For the same molecule, the MIC [9] was 0.9 µg/mL (≈ 1.13 µM), the MIC [10] was 75 µg/mL (≈ 93.9 µM) and the MIC [11] was 10 µg/mL (≈ 12.5 µM). The MIC [12] was 6 µg/mL (≈ 7.51 µM), the MIC (R-Streptococcen A2148) was 3 µg/mL (≈ 3.75 µM) and the MIC [13] was under 0.75 µg/mL. For the same molecule, the MIC [14] was 6 µg/mL (≈ 7.51 µM), the MIC [15] was 50 µg/mL (≈ 62.6 µM) and the MIC (Bacillus cereus B569) was 1.2 µg/mL (≈ 1.5 µM). It also gave an MIC [16] of 0.45 µg/mL (≈ 0.563 µM), an MIC [17] of 50 µg/mL (≈ 62.6 µM) and an MIC [18] of 0.3 µg/mL (≈ 0.375 µM). For the same molecule, the MIC [19] was over 100 µg/mL, the MIC [20] was 1.5 µg/mL (≈ 1.88 µM) and the MIC [21] was 0.9 µg/mL (≈ 1.13 µM). The MIC (Treponema spec. A2275) was 10 µg/mL (≈ 12.5 µM), the MIC (Bacillus cereus D166) was 0.6 µg/mL (≈ 0.751 µM) and the growth and feed-conversion [22] was “does not show any improvement of the growth or feed-conversion; also recorded: does not show the aforesaid properties”. For the same molecule, the MIC (Bacillus cereus TH 1) was 1.2 µg/mL (≈ 1.5 µM), the MIC [23] was 0.9 µg/mL (≈ 1.13 µM) and the MIC [24] was 0.45 µg/mL (≈ 0.563 µM).
With `CC=CC=CC1OC(O)(C(CC)C(=O)NCC=CC=C(C)C(OC)C(C)C2OC(C=CC=CC=C(C)C(=O)c3c(O)cc[nH]c3=O)C(O)C2O)C(O)C(O)C1(C)C` (stereo not drawn) [mocimycin] the MIC [1] was 6 µg/mL (≈ 7.53 µM), the solubility (Solubility; carbon tetrachloride and benzene (mocimycin)) was “poor” and the solubility (Solubility; chloroform, methyl isobutyl ketone, butyl acetate, ethyl acetate, acetone, methanol and alkaline solutions) was “good”. The solubility (Solubility; diethyl ether, petroleum ether, water and acid solutions) was “insoluble”, the solubility (Solubility; pH 9) was “poorly soluble” and the MIC (Bacillus subtilis TH 10) was 100 µg/mL (≈ 125 µM). The MIC [2] was over 100 µg/mL, the MIC (Escherichia coli U20) was over 100 µg/mL and the MIC [3] was 0.25 µg/mL (≈ 0.314 µM). The MIC [4] was 0.75 µg/mL (≈ 0.941 µM), the MIC [5] was 100 µg/mL (≈ 125 µM) and the MIC (Bacillus cereus D261) was 0.9 µg/mL (≈ 1.13 µM). For the same molecule, the MIC (Bacillus cereus D220) was 1.2 µg/mL (≈ 1.51 µM), the MIC [6] was over 100 µg/mL and the MIC [7] was 6 µg/mL (≈ 7.53 µM). It also gave an MIC [8] of over 100 µg/mL, an MIC [9] of 1.2 µg/mL (≈ 1.51 µM) and an MIC [10] of 75 µg/mL (≈ 94.1 µM). The MIC [11] was 10 µg/mL (≈ 12.5 µM), the MIC [12] was 6 µg/mL (≈ 7.53 µM) and the MIC (R-Streptococcen A2148) was 6 µg/mL (≈ 7.53 µM). The MIC [13] was 1.5 µg/mL (≈ 1.88 µM), the MIC [14] was 6 µg/mL (≈ 7.53 µM) and the MIC [25] was 1 µg/mL (≈ 1.25 µM). For the same molecule, the MIC (Candida albicans A 7) was over 100 µg/mL, the MIC [26] was over 100 µg/mL and the MIC [27] was 50 µg/mL (≈ 62.7 µM). It also gave an MIC [28] of over 100 µg/mL, an MIC [15] of 100 µg/mL (≈ 125 µM) and an MIC (Bacillus cereus B569) of 2.5 µg/mL (≈ 3.14 µM). For the same molecule, the MIC [16] was 0.45 µg/mL (≈ 0.565 µM), the MIC [17] was 100 µg/mL (≈ 125 µM) and the MIC [18] was 1 µg/mL (≈ 1.25 µM). It also gave an MIC [19] of over 100 µg/mL, an MIC [20] of 3 µg/mL (≈ 3.76 µM) and an MIC [21] of 1.2 µg/mL (≈ 1.51 µM). The MIC (Treponema spec. A2275) was 30 µg/mL (≈ 37.6 µM), the MIC (Bacillus cereus D166) was 0.6 µg/mL (≈ 0.753 µM) and the growth and feed-conversion [22] was “improves the growth and the feed-conversion markedly; also recorded: advantageous growth-promoting properties”. For the same molecule, the MIC (Bacillus cereus TH 1) was 1.8 µg/mL (≈ 2.26 µM), the MIC [23] was 2.5 µg/mL (≈ 3.14 µM) and the MIC [24] was 1.2 µg/mL (≈ 1.51 µM).
